Type in all cases: cell-based, human
For experiment [1], the system named is embryoid bodies from hES cells. The experiment can be described thus: Embryoid bodies with or without retinoic acid, then NT-3/BDNF; MAP-2 staining. The following applies: embryoid bodies maintained in 10 μM RA 4 days; then mitogens, then 10 ng/mL NT-3 and BDNF; without RA ~5%. Here is the method: To generate terminally differentiated neurons, the first stage of differentiation was induced by forming embryoid bodies in FBS medium with or without 10 μM retinoic acid (RA). After 4 days in suspension, embryoid bodies were plated onto fibronectin-coated plates in defined medium supplemented with 10 ng/mL human EGF, 10 ng/mL human bFGF, 1 ng/mL human PDGF-AA, and 1 ng/mL human IGF-1. The embryoid bodies adhered to the plates, and cells began to migrate onto the plastic, forming a monolayer.
The cell populations were further differentiated by replating the cells in a medium containing none of the mitogens, but containing 10 ng/mL Neurotrophin-3 (NT-3) and 10 ng/mL brain-derived neurotrophic factor (BDNF). Neurons with extensive processes were seen after about 7 days. […] GaIC positive cells were identified, but the cells were large and flat rather than having complex processes.

The test system of a further experiment is hES cell derived neurons. The experiment can be described thus: Fura-2 imaging of calcium flux. As to conditions: of the 53 cells tested; cells responding to GABA, acetylcholine, ATP and elevated potassium; 0.5 mM neurotransmitter, ATP 10 μM. Here is the method: Standard fura-2 imaging of calcium flux was used to investigate the functional properties of the hES cell derived neurons. Neurotransmitters studied included GABA, glutamate (E), glycine (G), elevated potassium (50 mM K^+ instead of 5 mM K^+), ascorbic acid (control), dopamine, acetylcholine (ACh) and norepinephrine. The solutions contained 0.5 mM of the neurotransmitter (except ATP at 10 μM) in rat Ringers (RR) solution: 140 mM NaCl, 3 mM KCl, 1 mM MgCl2, 2 mM CaCl2, 10 mM HEPES buffer, and 10 mM glucose. External solutions were set to pH 7.4 using NaOH. Cells were perfused in the recording chamber at 1.2-1.8 mL/min, and solutions were applied by bath application using a 0.2 mL loop injector located ˜0.2 mL upstream of the bath import. Transient rises in calcium were considered to be a response if the calcium levels rose above 10% of the baseline value within 60 sec of application, and returned to baseline within 1-2 min.
A general note: Calcium flux is commonly read through the fluorescence of an indicator in the cells.

In a further experiment the test system is hES cells. Nature of the experiment: Effect of neurotrophins on direct differentiation, β-tubulin positive cell count. As to conditions: 7 days of differentiation; BDNF 10 ng/mL, neurotrophin-3 1 ng/mL. Here is the method:
The effect of several members of the neurotrophin growth factor family was examined. hES cells were differentiated by harvesting with collagenase, dissociating, and reseeding onto poly-ornithine coated cover slips. The cells were plated into DMEM/F12+N2+10% FBS overnight. The following day, the serum was removed from the medium and replaced with 10 ng/mL human bFGF and the growth factor being tested. After 24 hours, bFGF was removed from the medium. These cultures were fed every other day. They were fixed after 7 days of differentiation and immunostained for analysis. The number of neurons was evaluated by counting cells positive for β-tubulin. Cultures maintained in the presence of 10 ng/mL brain derived neurotrophic factor (BDNF) formed approximately 3-fold more neurons than the control cultures. Cultures maintained in neurotrophin-3 (1 ng/mL) formed approximately 2-fold more neurons than control cultures.

For a further experiment, the system named is hES cells of the H7 line. Nature of the experiment: Direct differentiation: noggin, follistatin and retinoic acid (FIG. 6). As to conditions: 15 days with Treatment D, cAMP 700 μg; antagonists used for varying time periods. An excerpt: Noggin is apparently important at about the 1 week point (days 5 to 8), while follistatin is important at around the 2 week point (days 13 to 15), maximizing production of mature neurons rather than small neurites.
Virtually no β-tubulin positive neurons were formed in the absence of noggin or follistatin. […] It is hypothesized that initial noggin/follistatin induction generates a neural progenitor cell, which subsequently can be induced to form neurons by the addition of other factors.
Cells were differentiated according to treatment F as previously (left 2 bars) or omitting retinoic acid (right 2 bars).

For `CC1=C(/C=C/C(C)=C/C=C/C(C)=C/C(=O)O)C(C)(C)CCC1` [retinoic acid], the MAP-2 positive cells in experiment [1] is listed as around 26%. Regarding `Nc1ncnc2c1ncn2[C@@H]1O[C@H](COP(=O)(O)OP(=O)(O)OP(=O)(O)O)[C@@H](O)[C@H]1O` [ATP], the “cells that responded (calcium rise)” value in the experiment with hES cell derived neurons is 26.

Take `NCCCC(=O)O` [GABA, γ-amino butyric acid]: the “cells that responded (calcium rise)” value in the experiment on hES cell derived neurons came out at 26.

For the molecule `CC(=O)OCC[N+](C)(C)C` [acetylcholine], the “cells that responded (calcium rise)” value in the experiment on hES cell derived neurons came out at 26.

B1: neurotrophin-3: member of the neurotrophin growth factor family (protein, UniProt P20783 139-257, looked up)
Neurotrophin-3: YAEHKSHRGEYSVCDSESLWVTDKSSAIDIRGHQVTVLGEIKTGNSPVKQYFYETRCKEARPVKNGCRGIDDKHWNSQCKTSQTYVRALTSENNKLVGWRWIRIDTSCVCALSRKIGRT
B1: the “neurons formed (β-tubulin positive cells) relative to control cultures” value in the experiment with hES cells is reported as “approximately 2 fold”.

B2: noggin: TGF-β superfamily antagonist (protein, UniProt Q13253 28-232, looked up)
Noggin: QHYLHIRPAPSDNLPLVDLIEHPDPIFDPKEKDLNETLLRSLLGGHYDPGFMATSPPEDRPGGGGGAAGGAEDLAELDQLLRQRPSGAMPSEIKGLEFSEGLAQGKKQRLSKKLRRKLQMWLWSQTFCPVLYAWNDLGSRFWPRYVKVGSCFSKRSCSVPEGMVCKPSKSVHLTVLRWRCQRRGGQRCGWIPIQYPIISECKCSC
As to B2, the “contribution to neuron differentiation” value in the experiment on hES cells of the H7 line was “contribute to neuron differentiation, and work synergistically”.

B3: BDNF: brain derived neurotrophic factor, member of the neurotrophin growth factor family (protein, UniProt P23560 19-247, looked up)
Neurotrophic factor BDNF …: APMKEANIRGQGGLAYPGVRTHGTLESVNGPKAGSRGLTSLADTFEHVIEELLDEDQKVRPNEENNKDADLYTSRVMLSSQVPLEPPLLFLLEEYKNYLDAANMSMRVRRHSDPARRGELSVCDSISEWVTAADKKTAVDMSGGTVTVLEKVPVSKGQLKQYFYETKCNPMGYTKEGCRGIDKRHWNSQCRTTQSYVRALTMDSKKRIGWRFIRIDTSCVCTLTIKRGR
In the case of B3, the “neurons formed (β-tubulin positive cells) relative to control cultures” value with hES cells was “approximately 3 fold”.

B4: follistatin: TGF-β superfamily antagonist (protein, UniProt P19883 30-344, looked up)
Follistatin: GNCWLRQAKNGRCQVLYKTELSKEECCSTGRLSTSWTEEDVNDNTLFKWMIFNGGAPNCIPCKETCENVDCGPGKKCRMNKKNKPRCVCAPDCSNITWKGPVCGLDGKTYRNECALLKARCKEQPELEVQYQGRCKKTCRDVFCPGSSTCVVDQTNNAYCVTCNRICPEPASSEQYLCGNDGVTYSSACHLRKATCLLGRSIGLAYEGKCIKAKSCEDIQCTGGKKCLWDFKVGRGRCSLCDELCPDSKSDEPVCASDNATYASECAMKEAACSSGVLLEVKHSGSCNSISEDTEEEEEDEDQDYSFPISSILEW
In the case of B4, the “contribution to neuron differentiation” value in the experiment on hES cells of the H7 line was “contribute to neuron differentiation, and work synergistically”.

Values taken from patent US7763463B2, “Use of cyclic AMP and ascorbic acid to produce dopaminergic neurons from embryonic stem cells” (Geron Corporation, priority 2000, dated 2010).
